In brackets after ≈: the same amount, converted by molar mass.
Columns and labels:
Acinetobacter baumannii [1] = test: Antibacterial activity against colistin-resistant Acinetobacter baumannii clinical isolates by broth microdilution method; format: functional
Acinetobacter baumannii [2] = test: Antibacterial activity against extensively drug-resistant Acinetobacter baumannii clinical isolates by broth microdilution method; format: functional
Acinetobacter baumannii [3] = test: Antibacterial activity against imipenem-susceptible Acinetobacter baumannii clinical isolates by broth microdilution method; format: functional
Acinetobacter baumannii [4] = test: Antibacterial activity against colistin-susceptible Acinetobacter baumannii clinical isolates by broth microdilution method; format: functional
Acinetobacter baumannii [5] = test: Antibacterial activity against pandrug-resistant Acinetobacter baumannii clinical isolates by broth microdilution method; format: functional
[6] = Cmax in human serum at […], iv bolus dose followed by dose regimen of […] every 12 hrs; format: ADME, organism-based; design: route intravenous
Acinetobacter baumannii [7] = test: Antibacterial activity against colistin-resistant Acinetobacter baumannii clinical isolates assessed as percent susceptible isolates by broth microdilution method; format: functional
Acinetobacter baumannii [8] = test: Antibacterial activity against imipenem-susceptible Acinetobacter baumannii clinical isolates assessed as percent susceptible isolates by broth microdilution method; format: functional
Acinetobacter baumannii [9] = test: Antibacterial activity against all antibiotic-resistant Acinetobacter baumannii clinical isolates assessed as percent susceptible isolates by broth microdilution method; format: functional
Acinetobacter baumannii [10] = test: Antibacterial activity against extensively drug-resistant Acinetobacter baumannii clinical isolates assessed as percent susceptible isolates by broth microdilution method; format: functional
Acinetobacter baumannii [11] = test: Antibacterial activity against colistin-susceptible Acinetobacter baumannii clinical isolates assessed as percent susceptible isolates by broth microdilution method; format: functional
[12] = Acinetobacter baumannii, read-out: MIC90

SMILES	MIC90 (Acinetobacter baumannii [1]; [12]) [µg/mL]	MIC50 (Acinetobacter baumannii [2]) [µg/mL]	MIC90 (Acinetobacter baumannii [2]) [µg/mL]	MIC50 (Acinetobacter baumannii [3]) [µg/mL]	MIC90 (Acinetobacter baumannii [3]) [µg/mL]	MIC50 (Acinetobacter baumannii [4]) [µg/mL]	MIC50 (Acinetobacter baumannii [5]) [µg/mL]	MIC90 (Acinetobacter baumannii [5]) [µg/mL]	Cmax [6] [ng/mL]	MIC90 (Acinetobacter baumannii [1]) [µg/mL]	Activity (Acinetobacter baumannii [7]) [%]	MIC50 (Acinetobacter baumannii [8]) [µg/mL]	MIC90 (Acinetobacter baumannii [8]) [µg/mL]	MIC50 (Acinetobacter baumannii [9]) [µg/mL]	MIC90 (Acinetobacter baumannii [9]) [µg/mL]	MIC50 (Acinetobacter baumannii [10]) [µg/mL]	MIC90 (Acinetobacter baumannii [10]) [µg/mL]	Activity (Acinetobacter baumannii [11]) [%]
CN(C)c1cc(NC(=O)CNC(C)(C)C)c(O)c2c1C[C@H]1C[C@H]3[C@H](N(C)C)C(O)=C(C(N)=O)C(=O)[C@@]3(O)C(O)=C1C2=O [TIGECYCLINE]	2 (≈ 3.41 µM)	1 (≈ 1.71 µM)	2 (≈ 3.41 µM)	1 (≈ 1.71 µM)	2 (≈ 3.41 µM)	1 (≈ 1.71 µM)	1 (≈ 1.71 µM)	2 (≈ 3.41 µM)	630									
CN(C)c1ccc(O)c2c1C[C@H]1C[C@H]3[C@H](N(C)C)C(O)=C(C(N)=O)C(=O)[C@@]3(O)C(O)=C1C2=O [MINOCYCLINE]	16 (≈ 35 µM)					8 (≈ 17.5 µM)				8 (≈ 17.5 µM)	49.4	4 (≈ 8.74 µM)	8 (≈ 17.5 µM)	8 (≈ 17.5 µM)	16 (≈ 35 µM)	8 (≈ 17.5 µM)	16 (≈ 35 µM)	18

Source: ChEMBL document CHEMBL1629637, “In vitro activities of tigecycline, minocycline, and colistin-tigecycline combination against multi- and pandrug-resistant clinical isolates of Acinetobacter baumannii group” (Antimicrob Agents Chemother, 2009)
